According to patent publication US10857105B2, “Compounds and compositions for intracellular delivery of therapeutic agents” (ModernaTX, Inc., priority 2017, dated 2020):

What was measured:
[1] = Particle size and polydispersity index of nanoparticle compositions (Zetasizer Nano ZS); format: physicochemical
Procedure, shortened: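 Size and PDI measured by Zetasizer Nano ZS in 1×PBS (zeta potential in 15 mM PBS). Lipid nanoparticles contained test ionizable lipid:DSPC:cholesterol:PEG-DMG at 50:10:38.5:1.5 mol % with N1-methyl-pseudouridine mRNA encoding luciferase or hEPO.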

[2] = Encapsulation efficiency of RNA in nanoparticle compositions (RIBOGREEN assay); format: physicochemical
Procedure, shortened: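 Lipid nanoparticles (ionisable lipid:DSPC:cholesterol:PEG-DMG 50:10:38.5:1.5 mol %) carrying N1-methylpseudouridine luciferase or hEPO mRNA diluted to about 5 μg/mL in TE, pH 7.5, with or without 2% Triton X-100, 15 min at 37° C. RiboGreen fluorescence (ex ~480, em ~520 nm) blank-subtracted; free RNA = intact/disrupted signal.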

luciferase (Luc) mRNA [3] = experiment: Luciferase expression (whole body bioluminescence) after intravenous administration to mice; format: in vivo; conditions: intravenous, luciferase; for Novel lipid/MC3 ratio, i.v.: Table 3G, 6 hr. timepoint, relative to MC3; for Novel lipid/MC3 expression ratio, i.v.: 6 hr. time point, relative to MC3 formulation
Procedure, shortened: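 Mice (n=6) received lipid nanoparticle formulations carrying luciferase mRNA intravenously at 0.5 mg/kg. Whole-body bioluminescence was measured at 3, 6 and 24 h. Total flux was taken as area under the curve and expressed relative to a standard MC3 formulation.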

luciferase (Luc) mRNA [4] = experiment: Luciferase expression after intramuscular administration to mice; format: in vivo; conditions: intramuscular; for Total flux 6 hours after intramuscular administration, 0.01 mpk Dose: Luc mRNA
Procedure, shortened: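 CD-1 mice received lipid nanoparticle formulations of modified luciferase mRNA intramuscularly at 0.01 mpk. Bioluminescence total flux was measured, including at 6 h, and AUC was expressed relative to MC3 formulations. Immunogenicity was assessed in parallel.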

hEPO mRNA [5] = experiment: hEPO expression after intramuscular administration to mice; format: in vivo; conditions: intramuscular, hEPO; for Novel lipid/MC3 ratio, i.m. hEPO: Table 3G, 6 hr. timepoint, relative to MC3
Description: The numbers 1-11 in this figure correspond to MC3, Compounds 18, 25, 30, 108-112, 60, and 122 respectively.
(§1) The expression of hEPO and cytokine induction in mice intravenously administered a nanoparticle composition at a dose of 0.5 mpk were measured at 3, 6, and 24 hours. […] The expression of hEPO in mice intramuscularly administered a nanoparticle composition from Table 1B at a dose of 0.01 mpk were measured at 3, 6, and 24 hours. […] (see

modified luciferase = experiment: Luciferase expression in liver, lung, spleen and femur 6 hours after intravenous administration to mice; format: in vivo; conditions: 6 hours after intravenous 0.5 mpk, mice
Procedure, shortened: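 Nanoparticle formulations of the modified luciferase were given intravenously to mice (n=3) at 0.5 mpk. Bioluminescence was measured after 6 hours as total light flux. Standard MC3 formulation and PBS run as controls.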

[6] = system: modified luciferase (Luc) mRNA and H10 mRNA; experiment: Expression after intramuscular administration of formulations including Luc mRNA and H10 mRNA; format: in vivo
Description: Sample formulations including both modified luciferase (Luc) mRNA and H10 mRNA were prepared and administered intramuscularly and the resulting expression and immunogenicity were evaluated simultaneously. Formulations including compounds according to Formula (I), (IA), (IB), (II), (IIa), (IIb), (IIc), (IId), (IIe), (IIf), (IIg), or (III) were prepared and administered at doses of 0.001 and 0.01 mpk (e.g., doses of 0.0005 mpk of a formulation including Luc mRNA and a formulation including H10 mRNA or doses of 0.005 mpk of a formulation including Luc mRNA and a formulation including H10 mRNA).
The fluxes measured upon intravenous and intramuscular administration are compared in Table 6. Fluxes are presented as fold increase over that measured for MC3 formulations.

IL-6, IP-10 = experiment: Cytokine induction (IL-6, IP-10) in mice 6 hours after intravenous administration; format: in vivo; design: unit not given here; conditions: intravenous 0.5 mpk
Procedure, shortened: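 Mice dosed intravenously with nanoparticle compositions at 0.5 mpk; serum cytokine concentrations (IL-6, IP-10) measured at 6 hours. MC3 formulation and PBS controls run alongside.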

hEPO mRNA [7] = experiment: hEPO expression and cytokine induction after intravenous administration to mice; format: in vivo; conditions: mice
Description: FIG. 17 is a graph showing the hEPO mRNA expression in CD1-mice measured 3 h (left block), 6 h (middle block) and 24 h (right block) after intravenous administration of various nanoparticle compositions. Numbers 1-13 refer to compositions containing an mRNA expressing hEPO and the following: 1: Compound 147, 2: Compound 184, 3: Compound 232; 4: Compound 189; 5: Compound 200; 6: Compound 233; 7: Compound 234; 8: Compound 235; 9: Compound 237; 10: Compound 239; 11: Compound 243; 12: MC3; 13: PBS. […]
Sample formulations of nanoparticle compositions including different lipids are generally first evaluated according to Luc expression in vivo. The activity of several such compositions was further evaluated using an mRNA encoding hEPO. Nanoparticle compositions including Compounds 6, 18, 25, 30, 108-112, 60, and 122, or MC3 were prepared according to Example 2.
as §1
Table 12 compares the nanoparticle compositions including compounds according to Formula (I), (IA), (IB), (II), (IIa), (IIb), (IIc), (IId), (IIe), (IIf), (IIg), or (III) to the compositions including MC3 on the basis of expression and flux levels. […] Thus, these lipids may be useful in nanoparticle composition therapeutics.

CD-1 mice = experiment: Luciferase expression after intravenous delivery of luciferase mRNA LNPs (bioluminescent imaging); format: in vivo; conditions: intravenous 0.5 mg/kg mRNA dose
Description: Whole body and ex vivo organ bioluminescent imaging of mice: CD-1 mice were injected 15 minutes prior to the imaging timepoint intraperitoneally (IP) with 200 μL Xenolight D-luciferin K+ salt, diluted in PBS just prior to use to a concentration of 15 mg/mL. Ex vivo imaging of organs was completed, within 25 minutes of luciferin administration. All images were quantified by region of interest for total flux.
[…] […] (See Semple, S.C. et al., Nature Biotech. 2010. 28, 172-176, Jayaraman, M., et al. Angew. Chem. Int. Ed. 2012, 51, 8529-8533, the entire contents of each of which are incorporated by reference herein in their entireties). To evaluate the efficiency of the new amino lipids, LNPs using the novel compounds were tested in vivo in mice using luciferase mRNA as a reporter. An MC3 LNP was included as a control in each experiment, enabling the comparison of LNPs from experiment to experiment. Measured luciferase activity also enabled the determination of protein bio-distribution.

[8] = Chemical stability of lipids in ethanol at room temperature and 37° C. (lipid purity); format: physicochemical
Description: Ester linkages were previously reported to trigger metabolism by esterases in vivo. (See Fukami, T. et al. Drug Metab. Pharmacokinet. 2012, 27, 466-477, the content of which is incorporated by reference herein in its entirety). […] (See Maier M. A., Mol. Ther. 2013, 21, 1570-1578, the content of which is incorporated herein in its entirety) First, the chemical stability of the lipids was evaluated by measuring ethanol stability at room temperature and 37° C. (Table 39). […] LNPs formed with compound 138 were larger, with a surface pKa>7. […] Removal of one ester function (compound 136) afforded LNPs with improved physiochemical characteristics and lower LNP surface pKa.

[9] = Table 1A, lipid:DSPC:cholesterol:PEG-DMG 50:10:38.5:1.5 mol %
[10] = Table 1B, formulated with hEPO mRNA
[11] = Table 1C, compositions for subcutaneous administration

For `CCCCCCCCCOC(=O)CCCCCCCN(CCCCCCCC(=O)OC(CCCCCCCC)CCCCCCCC)CCCNC(=O)N(C)C` [Compound 110, Heptadecan-9-yl 8-((3-(3,3-dimethylureido)propyl)(8-(nonyloxy)-8-oxooctyl)amino)octanoate], the Size [1, 9] was 91.5 nm, the Size [1, 10] was 73.3 nm and the Size [1, 11] was 91.5 nm. For the same compound, the EE [2, 10] was 92.39%, the “Novel lipid/MC3 ratio, i.v.” value (luciferase (Luc) mRNA [3]) was 0.19 and the “Novel lipid/MC3 expression ratio, i.v.” value (luciferase (Luc) mRNA [3]) was 0.19. The “Total flux 6 hours after intramuscular administration, 0.01 mpk Dose” value (luciferase (Luc) mRNA [4]) was 1.21E+08 p/s, the “Novel lipid/MC3 ratio, i.m. hEPO” value (hEPO mRNA [5]) was 1.2 and the “Total Flux, Liver” value (modified luciferase) was 2.30E+08. The “Total Flux, Lung” value (modified luciferase) was 5.76E+06 and the “Total Flux, Spleen” value (modified luciferase) was 1.41E+08.

With `CCCCCCCCCOC(=O)CCCCCCCN(CCCCO)CCCCCCCC(=O)OC(CCCCCCCC)CCCCCCCC` [Compound 20, Heptadecan-9-yl 8-((4-hydroxybutyl)(8-(nonyloxy)-8-oxooctyl)amino) octanoate] the Size [1, 9] was 86.7 nm, the Size [1, 11] was 86.7 nm and the EE [2, 9] was 96.72%. The “Novel lipid/MC3 ratio, i.v.” value (luciferase (Luc) mRNA [3]) was 0.80, the “Novel lipid/MC3 expression ratio, i.v.” value (luciferase (Luc) mRNA [3]) was 0.80 and the “Total Flux, Femur” value (modified luciferase) was 1.31E+07. For the same compound, the “Total Flux, Liver” value (modified luciferase) was 1.84E+09, the “Total Flux, Lung” value (modified luciferase) was 2.66E+07 and the “Total Flux, Spleen” value (modified luciferase) was 1.43E+08. The “Expression upon intramuscular administration” value ([6]; doses of 0.001 and 0.01 mpk, 6 hours) was “highest expression at both dose levels”, the “Fold increase in Luc expression over MC3 upon intramuscular administration” value ([6]; intramuscular) was “highest fold increase” and the “Cytokine induction, IL-6” value (IL-6, IP-10) was 126.83. The “Cytokine induction, IP-10” value (IL-6, IP-10) was 2468.24.

For `CCCCC/C=C\C/C=C\CCCCCCCCN(CCO)CCCCCCCC(=O)OC(CCCCCCCC)CCCCCCCC` [Compound 6, Heptadecan-9-yl 8-((2-hydroxyethyl)((9Z,12Z)-octadeca-9,12-dien-1-yl)amino)octanoate], the “Total Flux, Femur” value (modified luciferase) was 2.15E+06, the “Total Flux, Liver” value (modified luciferase) was 1.09E+09 and the “Total Flux, Lung” value (modified luciferase) was 4.30E+06. For the same compound, the “Total Flux, Spleen” value (modified luciferase) was 3.03E+07, the “Cytokine induction, IL-6” value (IL-6, IP-10) was 136.18 and the “Cytokine induction, IP-10” value (IL-6, IP-10) was 316.01. For the same compound, the “hEPO expression, 3 h” value (hEPO mRNA [7]; intravenous 0.5 mpk, 3 h) was 2.31e+06 pg/mL, the “Cytokine expression, IL-6 (6 h)” value (hEPO mRNA [7]; intravenous 0.5 mpk, 6 h) was 10.15 pg/mL and the “Cytokine expression, IP-10 (6 h)” value (hEPO mRNA [7]; intravenous 0.5 mpk, 6 h) was 116.66 pg/mL. The “hEPO expression, 6 h” value (hEPO mRNA [7]; intravenous 0.5 mpk, 6 h) was 3.17e+06 pg/mL, the “hEPO expression, 24 h” value (hEPO mRNA [7]; intravenous 0.5 mpk, 24 h) was 1.11e+06 pg/mL and the “hEPO concentrations compared with MC3 formulations” value (hEPO mRNA [7]; intravenous, 0.5 mpk, 3, 6 and 24 hours) was “higher hEPO concentrations than MC3 formulations at each time point”. For the same compound, the “luciferase activity/expression compared to MC3 LNP control (words)” value (CD-1 mice) was “Equivalent expression to MC3 LNPs”, the “Lipid Purity, t = 96 h, 25° C.” value ([8]; 96 h, 25° C.) was 93.21% and the “Lipid Purity, t = 96 h, 37° C.” value ([8]; 96 h, 37° C.) was 94.29%. The “Lipid Purity, t = 0” value ([8]; t = 0) was 93.80%.

Compound `CCCCCCCCCOC(=O)CCCCCCCN(CCCCCCCC(=O)OC(CCCCCCCC)CCCCCCCC)CCCN/C(=N/C#N)N(C)C` [Compound 168, Heptadecan-9-yl (Z)-8-((3-(2-cyano-3,3-dimethylguanidino)propyl)(8-(nonyloxy)-8-oxooctyl)amino)octanoate] has a Size [1, 9] of 102.3 nm, a Size ([1]; Table 1D, compositions for subcutaneous administration, # formulated with hEPO mRNA) of 87.4 nm and a Size ([1]; Table 1E, compositions for subcutaneous administration) of 85.0 nm. The EE [2, 9] was 91.4%, the “Novel lipid/MC3 expression ratio, i.v.” value (luciferase (Luc) mRNA [3]) was 0.11 and the “Novel lipid/MC3 expression ratio, i.m. Luc” value (luciferase (Luc) mRNA [4]; luciferase, 6 hr. time point, relative to MC3 formulation) was 16.0. The “Novel lipid/MC3 expression ratio, i.m. hEPO” value (hEPO mRNA [5]; 6 hr. time point, relative to MC3 formulation) was 6.3.

With `CCCCCCCCCOC(=O)CCCCCCCN(CCCCCCCC(=O)OC(CCCCCCCC)CCCCCCCC)CCCNC(=O)NC` [Compound 112, Heptadecan-9-yl 8-((3-(3-methylureido)propyl)(8-(nonyloxy)-8-oxooctyl)amino)octanoate] the Size [1, 9] was 83.7 nm, the Size [1, 10] was 60.6 nm and the Size [1, 11] was 83.7 nm. For the same compound, the EE [2, 10] was 96.40%, the “Novel lipid/MC3 ratio, i.v.” value (luciferase (Luc) mRNA [3]) was 0.08 and the “Novel lipid/MC3 expression ratio, i.v.” value (luciferase (Luc) mRNA [3]) was 0.08. For the same compound, the “Total flux 6 hours after intramuscular administration, 0.01 mpk Dose” value (luciferase (Luc) mRNA [4]) was 9.47E+07 p/s, the “Novel lipid/MC3 ratio, i.m. hEPO” value (hEPO mRNA [5]) was 1.6 and the “Total Flux, Liver” value (modified luciferase) was 1.48E+08. The “Total Flux, Lung” value (modified luciferase) was 1.83E+06 and the “Total Flux, Spleen” value (modified luciferase) was 2.75E+07.
